According to publication doi:10.1101/2024.08.25.609621 (bioRxiv, 2024):
Values joined by “and” are separate entries in the source; they are usually repeats but may differ in a detail not shown here. Equal entries are not always repeated. Where two headings read alike, the source gives them in different places.

Columns and labels:
[1] = molecular target: SARS-CoV-2 NSP3 macrodomain (Mac1), P43 crystal form (Severe acute respiratory syndrome coronavirus 2, UniProt P0DTD1); type: binding; details: for 1-BDC: PanDDA background density correction; for Pandda run, overall: Modeled / Pandda run, overall: Hit: crystal soak; for Pandda run, overall: Hit: TRUE = ligand hit; for Total number of conformations: ligand conformations modeled in Mac1 crystal structure; for 2*(1-BDC) (%): occupancy estimate from PanDDA 1-BDC
[2] = molecular target: SARS-CoV-2 NSP3 macrodomain (Mac1) (Severe acute respiratory syndrome coronavirus 2, UniProt P0DTD1); experiment: biochemical; type: binding
[3] = ligand modeling in Mac1 crystal soak
[4] = Single dose, concentration 200 μM, read-out: Average % competition
[5] = preliminary screen, compound at 200 μM, mean of 3-4 technical replicates, read-out: % competition in HTRF assay
[6] = ligand modeling in Mac1 crystal structure

SMILES	Number of isomers bound [1, 3]	inhibition at 200 µM [2, 4] [%]	inhibition at 200 µM [2, 5] [%]	PanDDA run, TFA/DMSO background map: 1-BDC ([1]; crystal soak 10 mM)	PanDDA run, TFA/DMSO background map: Hit ([1]; crystal soak 10 mM)	other results
CCC1(O)CCN(c2ncnc3[nH]ccc23)C1 (stereo not drawn) [AVI-612]	1	22	22	–	–	–
O[C@@H]1CN(c2ncnc3[nH]ccc23)C[C@H]1F [AVI-616]	1	15	15	–	–	–
O[C@H]1COC[C@@H]1Nc1ncnc2[nH]ccc12 [AVI-1444, (3R,4S)-4-((7H-pyrrolo[2,3-d]pyrimidin-4-yl)amino)tetrahydrofuran-3-ol]	1	–	–	–	–	–
CC(C)(O)[C@@H]1CCCN1c1ncnc2[nH]ccc12 [AVI-1445, (S)-2-(1-(7H-pyrrolo[2,3-d]pyrimidin-4-yl)pyrrolidin-2-yl)propan-2-ol]	1	–	75	–	–	1-BDC [1]: 0.12; Pandda run, overall: Modeled ([1]; soak concentration 10 mM): TRUE; Pandda run, overall: Hit ([1]; soak concentration 10 mM): TRUE; Total number of conformations [1]: 1; 2*(1-BDC) (%) [1]: 24%; X-ray crystallography: Binding site ([1]; site where the ligand is bound in the X-ray crystal structure): Adenosine; PanDDA run, DMSO background map: 1-BDC ([1]; soak concentration 10 mM): 0.12; PanDDA run, DMSO background map: Hit ([1]; soak concentration 10 mM): TRUE; PanDDA run, TFA/DMSO background map: 1-BDC ([1]; soak concentration 10 mM): 0.12; PanDDA run, TFA/DMSO background map: Hit ([1]; soak concentration 10 mM): TRUE; fold decrease in affinity compared to AVI-607 ([2]; HTRF): ~ 5 fold; Hill slope ([2]; HTRF dose-response fit, Mac1): 1.1; inhibition at 200 µM ([2]; Single dose, concentration 200 μM, read-out: SARS CoV-2 macrodomain HTRF assay: Average % competition): 75%; SARS CoV-2 macrodomain HTRF assay: Hillslope ([2]; dose-response fit): 1.6; Ki ([2]; dose-response, read-out: SARS CoV-2 macrodomain HTRF assay: Ki): 100 µM; Ligand efficiency (binding enery per heavy atom) ([2]; from SARS CoV-2 macrodomain HTRF assay): 0.31; IC50 ([2]; read-out: HTRF IC50): 110 µM
Cc1c[nH]c2ncnc(NCC3(O)CCC3)c12 [AVI-3571, 1-(((5-methyl-7H-pyrrolo[2,3-d]pyrimidin-4-yl)amino)methyl)cyclobutan-1-ol]	1	–	–	–	–	1-BDC [1]: 0.15; X-ray crystal structure ([1]; X-ray crystal structure determined (TRUE)): TRUE; Pandda run, overall: Modeled ([1]; soak concentration 10 mM): TRUE; Pandda run, overall: Hit ([1]; soak concentration 10 mM): TRUE; Total number of conformations [1]: 2; 2*(1-BDC) (%) [1]: 30%; Binding site ([1]; site of ligand in X-ray crystal structure): Adenosine; PanDDA run, DMSO background map: 1-BDC ([1]; soak concentration 10 mM): 0.15 and 0.2; PanDDA run, DMSO background map: Hit ([1]; soak concentration 10 mM): TRUE; Isomers modeled ([1]; stereoisomer(s) of ligand modeled in Mac1 crystal structure): achiral,achiral; Hill slope ([2]; HTRF dose-response fit, Mac1): 1.0; Ligand efficiency (binding enery per heavy atom) ([2]; SARS CoV-2 macrodomain HTRF assay): 0.39; Hill slope ([2]; SARS CoV-2 macrodomain HTRF assay, dose-response): 1.0; IC50 ([2]; SARS CoV-2 macrodomain HTRF assay, dose-response, read-out: IC50): 15 µM; Ki ([2]; SARS CoV-2 macrodomain HTRF assay, dose-response, read-out: Ki): 14 µM
CCC(Nc1ncnc2[nH]ccc12)C(C)O (stereo not drawn) [AVI-3635]	1	54	54	0.08	TRUE	PanDDA run, TFA/DMSO background map: 1-BDC ([1]; soak concentration 10 mM): 0.11; PanDDA run, TFA/DMSO background map: Hit ([1]; soak concentration 10 mM): TRUE
OCC(CC(F)(F)F)Nc1ncnc2[nH]ccc12 (stereo not drawn) [AVI-3637]	1	50	50	–	–	PanDDA run, TFA/DMSO background map: 1-BDC ([1]; soak concentration 10 mM): 0.21; PanDDA run, TFA/DMSO background map: Hit ([1]; soak concentration 10 mM): TRUE
OCC(Nc1ncnc2[nH]ccc12)C1CCC1 (stereo not drawn) [AVI-3638]	1	77	77	0.1	TRUE	–
O=C(O)C(F)(F)F.O[C@H]1CCC[C@@H]1Nc1ncnc2[nH]ccc12 [AVI-3639]	1	74	74	0.09	TRUE	–
OCC(CC1CCC1)Nc1ncnc2[nH]ccc12 (stereo not drawn) [AVI-3641]	1	32	32	0.11	TRUE	–
OCC(CC(O)c1ccccc1)Nc1ncnc2[nH]ccc12 (stereo not drawn) [AVI-3642]	1	< 10	< 10	0.17	TRUE	–
CCC(CO)Nc1ncnc2[nH]ccc12 (stereo not drawn) [AVI-3643]	1	63	63	0.14	TRUE	–
C#CCC(CO)Nc1ncnc2[nH]ccc12 (stereo not drawn) [AVI-3644]	1	43	43	0.11	TRUE	–
OC1CCCN(c2ncnc3[nH]ccc23)C1 (stereo not drawn) [AVI-3646]	1	20	20	0.13	TRUE	–
CC(C)(C)CC(CO)Nc1ncnc2[nH]ccc12 (stereo not drawn) [AVI-3648]	1	27	27	0.16	TRUE	–
OCC(Nc1ncnc2[nH]ccc12)C1CCCC1 (stereo not drawn) [AVI-3649]	1	68	68	0.11	TRUE	–
Cc1c[nH]c2ncnc(NCC3(O)CCC(O)CC3)c12 (stereo not drawn) [AVI-4329]	–	–	–	–	–	Number of isomers bound [1, 6]: 1; Isomers modeled ([1]; stereoisomer(s) modeled in Mac1 crystal structure): rr,rr
CC(C)(C)C1CCCN1c1ncnc2[nH]ccc12 (stereo not drawn) [AVI-6000]	–	–	–	–	–	Number of isomers bound [1, 6]: 1
